For 10 compounds, IC50 and DC50 results are on record in patent US11542273B2, “Amide compound having bet proteolysis-inducing action and medicinal application thereof” (MITSUBISHI TANABE PHARMA CORPORATION, priority 2018, dated 2023).

As a reminder, the IC50 is the concentration that gives 50% inhibition. What is called DC50 is the concentration at which degradation of the target reaches its halfway point. A high value points to degradation only at high concentration.

Experiment [1] relates to human prostate cancer LNCaP cells. In words: Cytotoxic action on cancer cells (WST-8, 96 hr). To be noted: Homo sapiens, LNCaP, 96 h, read-out: LNCaP cytotoxic activity: IC50. The class given is cell-based. As to the method:
The cytotoxic action of the compound of the present invention against human cancer cells was evaluated in vitro. In this experiment, (+)-JQ1 (Nature volume 468, pages 1067-1073 (23 Dec. 2010)) known to have an inhibitory activity on the binding of BRD4 protein and a ligand therefor was used as a positive control drug. Respective cells were suspended in 10% FBS/RPMI1640, seeded in a 96 well plate and cultured at 5% CO2, 37° C. overnight. A test compound dissolved in DMSO was diluted with 10% FBS/RPMI1640 and added and the cells were further cultured for 96 hr. After culturing, the viable cell number was measured using a cell number measurement WST-8 kit (Kishida Chemical Co., Ltd.). As a control, the measurement was performed under conditions free of the test compound. The cytotoxic activity of the compound of the present invention against human prostate cancer LNCaP cells is shown in IC50 value in Table 1. […] It was calculated from the straight line connecting the cell survival rate at two points enclosing the 50% cell survival rate and the compound concentration. In addition, the cytotoxic activity against respective cancer cells of human acute myeloid leukemia MV-4-11 cell, human chronic myeloid leukemia K562 cell, human multiple myeloma MM.1S cell, human diffuse large B-cell lymphoma SU-DHL-6 cell, human T-cell leukemia Jurkat cells, human Burkitt lymphoma Raji cell, human castration-resistant prostate cancer PC-3 cell, human ovarian cancer A2780 cell, human bladder cancer 5637 cell, human breast cancer ZR-75-1 cell, human triple negative breast cancer MDA-MB-231 cell, human uterine sarcoma MES-SA cell, human gastric cancer SNU-16 cell, human non-small cell lung cancer NCI-H1975 cell, human small cell lung cancer NCI-H82 cell, human large cell lung cancer NCI-H460 cell, human colorectal cancer HCT116 cell, human glioma U-87 MG cell, human pancreatic cancer AsPC-1 cell, and human liver cancer Hep G2 cell is shown in IC50 value in Table 2.
For orientation: Formazan colour is commonly taken as a measure of viable cells.

For experiment [2], the target named is BRD4 protein (Homo sapiens (Human), UniProt O60885). As to the kind of experiment: BRD4 protein degradation inducing action in cancer cells (immunofluorescence, Operetta). To be noted: LNCaP cells, 6 hr treatment, fluorescence intensity. The class given is cell-based. On the procedure:
The degradation inducing action of the compound of the present invention on BRD4 protein in cancer cells was evaluated in vitro using human prostate cancer LNCaP cells. LNCaP cells were suspended in 10% FBS/RPMI1640, seeded in a 96 well Cell carrier plate (Perkin Elmer) and cultured at 5% CO2, 37° C. overnight. A test compound dissolved in DMSO was diluted with 10% FBS/RPMI1640 and added and the cells were further cultured for 6 hr. After culturing, the cells were immobilized with 4% para-formaldehyde/PBS and further subjected to a permeation treatment with 0.25% Triton X-100/PBS. Thereafter, the cells were blocked with 10% BSA/PBS, a solution containing Anti-Brd4 antibody (Abcam) or Anti-BRD4 (Sigma-Aldrich) as the primary antibody was added and the cells were incubated at 4° C. overnight. Thereafter, as the secondary antibody, a solution containing secondary antibody A shown below was added to Example compounds 1-190, 223 and 224, and a solution containing secondary antibody B shown below was added to Example compounds 191-222, and 0.5 μg/mL Hoechst 33342 (Sigma-Aldrich) and 14 μM Acti-Stain 555 Fluorescent Phalloidin (Cytoskeleton) were further added. After incubation for 1 hr, BRD4 protein amount was measured by Operetta (Perkin Elmer) as fluorescence intensity.
• Anti-Rabbit IgG(H+L), F(ab′)2 Fragment (Alexa Fluor 488 Conjugate) (Cell Signaling Technology), fluorescence intensity was measured at excitation: 495 nm, emission: 519 nm. Secondary Antibody B • Goat anti-Rabbit IgG(H+L) Cross-Adserbed Secondary Antibody (Alexa Fluor 546) (Thermo Fisher Scientific) fluorescence intensity was measured at excitation: 560 nm, emission: 572 nm.
The BRD4 protein degradation inducing activity of the compound of the present invention in LNCaP cells is shown in DC50 value in Table 3. The DC50 value is a concentration of the compound showing 50% fluorescence intensity when the fluorescence intensity thereof under compound untreated condition is 100%. It was calculated from the straight line connecting the fluorescence intensity at two points enclosing the 50% fluorescence intensity and the compound concentration.

Regarding `COC(=O)C[C@@H]1N=C(c2ccc(-c3ccc(O[C@H]4C[C@H](C(=O)N[C@H](C(=O)N5C[C@H](O)C[C@H]5C(=O)N[C@@H](C)c5ccc(-c6scnc6C)cc5)C(C)(C)C)C4)nc3)cc2)c2c(sc(C)c2C)-n2c(C)nnc21` [Example 165, methyl {(6S)-4-[4-(6-{[trans-3-({(2S)-1-[(2S,4R)-4-hydroxy-2-({(1S)-1-[4-(4-methyl-1,3-thiazol-5-yl)phenyl]ethyl}carbamoyl)pyrrolidin-1-yl]-3,3-dimethyl-1-oxobutan-2-yl}carbamoyl)cyclobutyl]oxy}pyridin-3-yl)phenyl]-2,3,9-trimethyl-6H-thieno[3,2-f][1,2,4]triazolo[4,3-a] [1,4]diazepin-6-yl}acetate], the IC50 in experiment [1] was determined as 0.26 nM. In experiment [2], the 50% degradation concentration (DC50) amounted to 0.041 nM.
`COC(=O)C[C@@H]1N=C(c2ccc(NC(=O)CCc3ccc(OCCOCCOCCOCCOCCOCCOCCOCC(=O)N[C@H](C(=O)N4C[C@H](O)C[C@H]4C(=O)N[C@@H](C)c4ccc(-c5scnc5C)cc4)C(C)(C)C)cc3)cc2)c2c(sc(C)c2C)-n2c(C)nnc21` [Example 5, methyl [(6S)-4-(4-{3-[4-({(25S)-25-[(2S,4R)-4-hydroxy-2-({(18)-1-[4-(4-methyl-1,3-thiazol-5-yl)phenyl]ethyl}carbamoyl)pyrrolidine-1-carbonyl]-26,26-dimethyl-23-oxo-3,6,9,12,15,18,21-heptaoxa-24-azaheptacosan-1-yl}oxy)phenyl]propanamido}phenyl)-2,3,9-trimethyl-6H-thieno[3,2-f][1,2,4]triazolo[4,3-a][1,4]diazepin-6-yl]acetate]: the IC50 in experiment [1] is 1.2 nM. Further, in experiment [2], the 50% degradation concentration (DC50) was found to be 0.52 nM.
Take `Cc1ncsc1-c1ccc([C@H](C)NC(=O)[C@@H]2C[C@@H](O)CN2C(=O)[C@@H](NC(=O)/C=C/c2ccc(C3=N[C@@H](C)c4nnc(C)n4-c4sc(C)c(C)c43)cc2)C(C)(C)C)cc1` [Example 201, (2S,4R)-1-[(2S)-3,3-dimethyl-2-{[(2E)-3-{4-[(6S)-2,3,6,9-tetramethyl-6H-thieno[3,2-f][1,2,4]triazolo[4,3-a] [1,4]diazepin-4-yl]phenyl}prop-2-enoyl]amino}butanoyl]-4-hydroxy-N-{(1S)-1-[4-(4-methyl-1,3-thiazol-5-yl)phenyl]ethyl}pyrrolidine-2-carboxamide]: the concentration for half-maximal inhibition (IC50) in experiment [1] came to 0.34 nM. This compound yielded a DC50 in experiment [2] of 0.37 nM.
Consider `COC(=O)C[C@@H]1N=C(c2ccc(-c3ccc(COCC(=O)N[C@H](C(=O)N4C[C@H](O)C[C@H]4C(=O)N[C@@H](C)c4ccc(-c5scnc5C)cc4)C(C)(C)C)cc3)cc2)c2c(sc(C)c2C)-n2c(C)nnc21` [Example 39, methyl [(6S)-4-(4′-{[2-({(2S)-1-[(2S,4R)-4-hydroxy-2-({(1S)-1-[4-(4-methyl-1,3-thiazol-5-yl)phenyl]ethyl}carbamoyl)pyrrolidin-1-yl]-3,3-dimethyl-1-oxobutan-2-yl}amino)-2-oxoethoxy]methyl}[1,1′-biphenyl]-4-yl)-2,3,9-trimethyl-6H-thieno[3,2-f][1,2,4]triazolo[4,3-a] [1,4]diazepin-6-yl]acetate], for which the IC50 in experiment [1] was 0.071 nM. This compound showed a DC50 in experiment [2] of 0.013 nM.
Turning to `CNC(=O)C[C@@H]1N=C(c2ccc(-c3ccc(C(=O)N[C@H](C(=O)N4C[C@H](O)C[C@H]4C(=O)N[C@@H](C)c4ccc(-c5scnc5C)cc4)C(C)(C)C)cc3F)cc2)c2c(sc(C)c2C)-n2c(C)nnc21` [Example 206, (2S,4R)-1-{(2S)-2-[(2-fluoro-4′-{(6S)-2,3,9-trimethyl-6-[2-(methylamino)-2-oxoethyl]-6H-thieno[3,2-f] [1,2,4]triazolo[4,3-a][1,4]diazepin-4-yl}[1,1′-biphenyl]-4-carbonyl)amino]-3,3-dimethylbutanoyl}-4-hydroxy-N-{(1S)-1-[4-(4-methyl-1,3-thiazol-5-yl)phenyl]ethyl}pyrrolidine-2-carboxamide], the 50% inhibitory concentration (IC50) in experiment [1] turned out to be 0.68 nM. The same compound showed a half-maximal degradation concentration (DC50) in experiment [2] of 0.73 nM.
In the same order, the values of `Cc1ncsc1-c1ccc([C@H](C)NC(=O)[C@@H]2C[C@@H](O)CN2C(=O)[C@@H](NC(=O)c2ccc(-c3ccc(C4=N[C@@H](C)c5nnc(C)n5-c5sc6c(c54)CCC6)cc3)cc2)C(C)(C)C)cc1` [Example 200, (2S,4R)-1-[(2S)-2-({4′-[(45)-1,4-dimethyl-8,9-dihydro-4H,7H-cyclopenta[4,5]thieno[3,2-f][1,2,4]triazolo[4,3-a] [1,4]diazepin-6-yl][1,1′-biphenyl]-4-carbonyl}amino)-3,3-dimethylbutanoyl]-4-hydroxy-N-{(1S)-1-[4-(4-methyl-1,3-thiazol-5-yl)phenyl]ethyl}pyrrolidine-2-carboxamide] are 0.38 nM and 0.66 nM.
Taken in the same sequence, the figures for `Cc1ncsc1-c1ccc([C@H](C)NC(=O)[C@@H]2C[C@@H](O)CN2C(=O)[C@@H](NC(=O)COc2ccc(-c3ccc(C4=N[C@@H](C)c5nnc(C)n5-c5sc(C)c(C)c54)cc3)cc2C#N)C(C)(C)C)cc1` [Example 16, (2S,4R)-1-{(2S)-2-[2-({3-cyano-4′-[(6S)-2,3,6,9-tetramethyl-6H-thieno[3,2-f][1,2,4]triazolo[4,3-a] [1,4]diazepin-4-yl][1,1′-biphenyl]-4-yl}oxy)acetamido]-3,3-dimethylbutanoyl}-4-hydroxy-N-{(1S)-1-[4-(4-methyl-1,3-thiazol-5-yl)phenyl]ethyl}pyrrolidine-2-carboxamide] were 0.29 nM and 0.53 nM.
Regarding `COC(=O)C[C@@H]1N=C(c2ccc(-c3ccc(SCC(=O)N[C@H](C(=O)N4C[C@H](O)C[C@H]4C(=O)N[C@@H](C)c4ccc(-c5scnc5C)cc4)C(C)(C)C)cc3)cc2)c2c(sc(C)c2C)-n2c(C)nnc21` [Example 53, methyl [(6S)-4-(4′-{[2-({(2S)-1-[(2S,4R)-4-hydroxy-2-({(1S)-1-[4-(4-methyl-1,3-thiazol-5-yl)phenyl]ethyl}carbamoyl)pyrrolidin-1-yl]-3,3-dimethyl-1-oxobutan-2-yl}amino)-2-oxoethyl]sulfanyl}[1,1′-biphenyl]-4-yl)-2,3,9-trimethyl-6H-thieno[3,2-f][1,2,4]triazolo[4,3-a] [1,4]diazepin-6-yl]acetate], the IC50 in experiment [1] is 0.2 nM. The same compound yielded a DC50 in experiment [2] of 0.091 nM.
For the compound `Cc1ncsc1-c1ccc([C@H](C)NC(=O)[C@@H]2C[C@@H](O)CN2C(=O)[C@@H](NC(=O)c2ccc(-c3ccc(C4=N[C@@H](CC(=O)N(C)C)c5nnc(C)n5-c5sc(C)c(C)c54)cc3)c(F)c2)C(C)(C)C)cc1` [Example 207, (2S,4R)-1-{(2S)-2-[(4′-{(6S)-6-[2-(dimethylamino)-2-oxoethyl]-2,3,9-trimethyl-6H-thieno [3,2-f][1,2,4]triazolo [4,3-a] [1,4]diazepin-4-yl}-2-fluoro [1,1′-biphenyl]-4-carbonyl)amino]-3,3-dimethylbutanoyl}-4-hydroxy-N-{(1S)-1-[4-(4-methyl-1,3-thiazol-5-yl)phenyl]ethyl}pyrrolidine-2-carboxamide], the half-inhibitory concentration (IC50) in experiment [1] worked out at 0.43 nM. The DC50 in experiment [2] turned out to be 0.62 nM.
As for `COC(=O)C[C@@H]1N=C(c2ccc(-c3ccc(CCC(=O)N[C@H](C(=O)N4C[C@H](O)C[C@H]4C(=O)N[C@@H](C)c4ccc(-c5scnc5C)cc4)C(C)(C)C)cc3)cc2)c2c(sc(C)c2C)-n2c(C)nnc21` [Example 28, methyl [(6S)-4-{4′-[3-({(2S)-1-[(2S,4R)-4-hydroxy-2-({(1S)-1-[4-(4-methyl-1,3-thiazol-5-yl)phenyl]ethyl}carbamoyl)pyrrolidin-1-yl]-3,3-dimethyl-1-oxobutan-2-yl}amino)-3-oxopropyl][1,1′-biphenyl]-4-yl}-2,3,9-trimethyl-6H-thieno[3,2-f][1,2,4]triazolo[4,3-a][1,4]diazepin-6-yl]acetate], the 50% inhibitory concentration (IC50) in experiment [1] was determined as 0.044 nM. The compound further came in with a DC50 in experiment [2] of 0.023 nM.
